{
  "source": "ChEMBL document CHEMBL1146862",
  "about": "“Synthesis of trifluoromethylaryl diazirine and benzophenone derivatives of etomidate that are potent general anesthetics and effective photolabels for probing sites on ligand-gated ion channels” (J Med Chem, 2006)",
  "key": {"[1]": {"molecular_target": "T1, GABA-A receptor; anion channel (Homo sapiens) (UniProt P14867+P47870+P18507+P28472+P48169+Q99928+Q9UN88+P34903+O00591+O14764+Q8N1C3+P18505+P78334+P47869+P31644+Q16445)", "test": "Enhancement of [3H]flunitrazepam binding to cerebral cortex GABA-A receptor at 1 uM", "format": "tissue-based"}, "[2]": {"molecular_target": "T2, GABA-A receptor; alpha-1/beta-2/gamma-2 (Homo sapiens) (UniProt P14867+P47870+P18507)", "test": "Enhancement of current in Xenopus laevis oocytes expressing human GABA-Alpha1 receptor plus beta-2-gamma-2L upto 1 uM", "format": "functional, cell-based", "conditions": "Oocyte"}, "[3]": {"molecular_target": "T3, Serotonin 3 (5-HT3) receptor (Homo sapiens) (UniProt P46098+A5X5Y0+O95264+Q70Z44+Q8WXA8)", "test": "Inhibition of 5HT3 receptor at 0.7 uM", "format": "protein-complex assay"}, "Xenopus sp.": {"tested_on": "Xenopus sp.", "test": "Anesthetic activity in Xenopus tadpole measured as loss of righting reflex", "format": "functional, organism-based"}, "[4]": {"molecular_target": "Acetylcholine receptor subunit alpha (Torpedo californica) (UniProt P02710)", "sequence (P02710 whole entry)": "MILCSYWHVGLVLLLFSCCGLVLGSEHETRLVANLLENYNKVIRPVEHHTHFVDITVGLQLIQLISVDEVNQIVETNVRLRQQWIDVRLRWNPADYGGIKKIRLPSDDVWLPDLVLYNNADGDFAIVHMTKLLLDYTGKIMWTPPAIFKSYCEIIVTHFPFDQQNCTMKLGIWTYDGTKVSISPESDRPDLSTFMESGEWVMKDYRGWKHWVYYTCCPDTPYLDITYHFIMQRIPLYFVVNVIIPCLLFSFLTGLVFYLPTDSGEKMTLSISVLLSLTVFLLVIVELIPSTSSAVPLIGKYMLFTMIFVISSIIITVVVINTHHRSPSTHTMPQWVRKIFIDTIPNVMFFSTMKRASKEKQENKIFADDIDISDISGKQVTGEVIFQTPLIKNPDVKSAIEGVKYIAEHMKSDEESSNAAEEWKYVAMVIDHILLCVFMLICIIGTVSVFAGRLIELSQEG", "test": "Photolabeling of Torpedo californica alpha nAChR in presence of agonist relative to in absence of agonist", "format": "functional", "conditions": "Tetronarce californica"}, "[5]": {"molecular_target": "T2, GABA-A receptor; alpha-1/beta-2/gamma-2 (Homo sapiens)", "test": "Enhancement of current in Xenopus laevis oocytes expressing human GABA-Alpha1 receptor plus beta-2-gamma-2L upto 10 uM", "format": "functional, cell-based", "conditions": "Oocyte"}, "[6]": {"molecular_target": "T1, GABA-A receptor; anion channel (Homo sapiens)", "test": "Enhancement of [3H]flunitrazepam binding to cerebral cortex GABA-A receptor at 0.1 uM", "format": "tissue-based"}, "[7]": {"molecular_target": "T3, Serotonin 3 (5-HT3) receptor (Homo sapiens)", "test": "Inhibition of 5HT3 receptor at 0.22 uM", "format": "protein-complex assay"}, "[8]": {"molecular_target": "T3, Serotonin 3 (5-HT3) receptor (Homo sapiens)", "test": "Inhibition of 5HT3 receptor at 2.3 uM", "format": "protein-complex assay"}, "[9]": {"molecular_target": "T1, GABA-A receptor; anion channel (Homo sapiens)", "test": "Reduction of [3H]flunitrazepam binding to cerebral cortex GABA-A receptor at 100 uM relative to control", "format": "tissue-based", "parameters": "scale not given: the % may be the effect or the level left"}, "[10]": {"molecular_target": "T1, GABA-A receptor; anion channel (Homo sapiens)", "test": "Enhancement of [3H]flunitrazepam binding to cerebral cortex GABA-A receptor at >=1 uM", "format": "tissue-based"}, "[11]": {"molecular_target": "T3, Serotonin 3 (5-HT3) receptor (Homo sapiens)", "test": "Inhibition of 5HT3 receptor at 2.2 uM", "format": "protein-complex assay"}, "[12]": {"molecular_target": "T1, GABA-A receptor; anion channel (Homo sapiens)", "test": "Enhancement of [3H]flunitrazepam binding to cerebral cortex GABA-A receptor at >=0.3 uM", "format": "tissue-based"}, "[13]": {"molecular_target": "T4, Acetylcholine receptor subunit delta (Torpedo californica) (UniProt P02718)", "T4 sequence (whole entry)": "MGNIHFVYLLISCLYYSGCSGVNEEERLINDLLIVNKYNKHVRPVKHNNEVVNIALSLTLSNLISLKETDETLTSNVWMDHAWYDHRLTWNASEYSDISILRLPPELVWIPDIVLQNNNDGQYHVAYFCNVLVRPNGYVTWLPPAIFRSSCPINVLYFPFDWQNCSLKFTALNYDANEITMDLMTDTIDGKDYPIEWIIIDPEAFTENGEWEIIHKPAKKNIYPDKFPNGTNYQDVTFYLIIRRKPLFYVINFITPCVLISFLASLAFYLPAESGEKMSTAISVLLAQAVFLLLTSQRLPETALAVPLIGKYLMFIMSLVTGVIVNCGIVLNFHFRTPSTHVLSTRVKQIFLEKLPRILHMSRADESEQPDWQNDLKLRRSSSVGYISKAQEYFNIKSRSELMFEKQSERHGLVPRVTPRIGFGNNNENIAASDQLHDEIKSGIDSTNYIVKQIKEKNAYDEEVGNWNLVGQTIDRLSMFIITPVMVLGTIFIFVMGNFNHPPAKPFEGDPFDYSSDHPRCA", "test": "Photolabeling of Torpedo californica delta nAChR in presence of agonist relative to in absence of agonist", "format": "functional", "conditions": "Tetronarce californica"}},
  "note": "Active and inactive are the calls of the source. No cut-off for these calls is given here.",
  "data": [
    {"smiles": "C[C@H](c1ccccc1)n1cncc1C(=O)OCc1ccc(C2(C(F)(F)F)N=N2)cc1", "values": [
      {"measurement": "Activity", "setting": "[1]", "value": "Active"},
      {"measurement": "Activity", "setting": "[2]", "value": "inactive"},
      {"measurement": "inhibition", "setting": "[3]", "value": "< 10", "unit": "%"},
      {"measurement": "EC50", "setting": "Xenopus sp.", "value": 0.7, "unit": "µM"}
    ]},
    {"smiles": "CCCC(C(=O)OCCN(CC)CC)(c1ccccc1)c1ccccc1", "values": [
      {"measurement": "Activity", "setting": "[4]", "value": 70, "unit": "%"}
    ]},
    {"smiles": "C[C@H](c1ccccc1)n1cncc1C(=O)OCc1ccc(C(=O)c2ccccc2)cc1", "values": [
      {"measurement": "Activity", "setting": "[5]", "value": "inactive"},
      {"measurement": "Activity", "setting": "[6]", "value": "Active"},
      {"measurement": "EC50", "setting": "Xenopus sp.", "value": 0.22, "unit": "µM"},
      {"measurement": "inhibition", "setting": "[7]", "value": "< 10", "unit": "%"}
    ]},
    {"smiles": "CCOC(=O)c1cncn1[C@H](C)c1ccccc1", "note": "[ETOMIDATE]", "values": [
      {"measurement": "inhibition", "setting": "[8]", "value": 11, "unit": "%"},
      {"measurement": "Activity", "setting": "[9]", "value": 78.5, "unit": "%"},
      {"measurement": "EC50", "setting": "Xenopus sp.", "value": 2.3, "unit": "µM"},
      {"measurement": "Activity", "setting": "[10]", "value": "Active"}
    ]},
    {"smiles": "CC(c1ccccc1)n1cncc1C(=O)OCCC1(C)N=N1", "note": "(stereo not drawn) [AZIETOMIDATE]", "values": [
      {"measurement": "inhibition", "setting": "[11]", "value": 8, "unit": "%"},
      {"measurement": "Activity", "setting": "[9]", "value": 115, "unit": "%"},
      {"measurement": "Activity", "setting": "[12]", "value": "Active"},
      {"measurement": "EC50", "setting": "Xenopus sp.", "value": 2.2, "unit": "µM"}
    ]},
    {"smiles": "C[N+](C)(C)CCOC(N)=O", "values": [
      {"measurement": "Activity", "setting": "[13]", "value": 60, "unit": "%"}
    ]}
  ]
}
